Test results reported in patent US8772029B2, “Modulation of oocyte meiotic progression and oocyte activation” (Northwestern University, priority 2011, dated 2014).
Entries after “also recorded” stand apart in the source; their conditions may differ.

How the values were obtained:
[1] = tested on: MPF activity; test: Histone H1 kinase assay on single oocytes/eggs (MPF activity); assay type: cell-based, mouse
Protocol: Histone H1 and myelin basic protein (MBP) dual kinase assays were performed as previously described (Svoboda et al., 2000). Dried gels were exposed to Kodak BIOMAX MR films for 12 to 72 hours at −80° C. using Kodak intensifying screens; films were developed, scanned, and analyzed using ImageJ software. Assays were performed on single oocytes, and densitometric analysis is expressed relative to levels in control eggs.

[2] = tested on: GV oocytes; test: TPEN treatment of PDE-inhibitor arrested GV oocytes; assay type: cell-based
Source text: In certain embodiments, zinc modulation is useful for overcoming earlier meiotic arrests. Normally, treatment of GV stage oocytes with broad-spectrum or PDE3-specific phosphodiesterase (PDE) inhibitors results in maintenance of GV arrest due to elevated cAMP levels. […] As such, limiting zinc availability could also be used to overcome GV arrest and allow progression through GVBD in clinical cases of GV arrest. The methods of the present invention are also useful as a secondary treatment for oocytes that remain GV arrested following conventional in vitro maturation, and could be of particular value for use in conjunction with in vitro follicle culture systems currently being developed for use in fertility preservation programs for patients undergoing fertility-threatening cancer treatments, in which methods for overcoming GV arrest are necessary (Xu et al 2006).

[3] = tested on: oocytes; details: literature (Kim et al 2010, Bernhardt et al 2011); cited from earlier work
[4] = tested on: MII eggs; details: literature (Kim et al 2011, Suzuki et al 2010); cited from earlier work

## c1ccc(CN(CCN(Cc2ccccn2)Cc2ccccn2)Cc2ccccn2)nc1 [TPEN, N,N,N′,N′-tetrakis(2-pyridylmethyl)ethylenediamine]
[1]; in vivo ovulated MII eggs, KSOM with 10 μM TPEN, 1 to 8 hours, seen as soon as 1 hour
  MPF activity (histone H1 kinase) in MII eggs: decline
[1]; oocytes cultured with 10 μM TPEN during the MI-MII transition (7.5 h control, 6.5 h TPEN)
  MPF activity (histone H1 kinase): low
[2]; PDE-inhibitor arrested GV oocytes that resumed meiosis under TPEN
  progression to MII after transfer back to zinc replete medium: a proportion of these oocytes progress to MII
[2]; oocytes held at GV stage with phosphodiesterase inhibitors, TPEN treatment
  meiotic resumption of GV-arrested oocytes: premature GV breakdown (GVBD) and meiotic progression; also recorded: premature meiotic progression and GV breakdown (GVBD)
[3]
  meiotic arrest on TPEN treatment during the MI-MII transition: causes meiotic arrest at telophase-I
[4]
  activation of MII-arrested eggs by zinc sequestration with TPEN: causes egg activation and resumption of cell cycle; also recorded: induce egg activation and embryo development
